The target in the test is T1, TLR7 (Homo sapiens, UniProt Q9NYK1).
T1 sequence (Q9NYK1 27-1049): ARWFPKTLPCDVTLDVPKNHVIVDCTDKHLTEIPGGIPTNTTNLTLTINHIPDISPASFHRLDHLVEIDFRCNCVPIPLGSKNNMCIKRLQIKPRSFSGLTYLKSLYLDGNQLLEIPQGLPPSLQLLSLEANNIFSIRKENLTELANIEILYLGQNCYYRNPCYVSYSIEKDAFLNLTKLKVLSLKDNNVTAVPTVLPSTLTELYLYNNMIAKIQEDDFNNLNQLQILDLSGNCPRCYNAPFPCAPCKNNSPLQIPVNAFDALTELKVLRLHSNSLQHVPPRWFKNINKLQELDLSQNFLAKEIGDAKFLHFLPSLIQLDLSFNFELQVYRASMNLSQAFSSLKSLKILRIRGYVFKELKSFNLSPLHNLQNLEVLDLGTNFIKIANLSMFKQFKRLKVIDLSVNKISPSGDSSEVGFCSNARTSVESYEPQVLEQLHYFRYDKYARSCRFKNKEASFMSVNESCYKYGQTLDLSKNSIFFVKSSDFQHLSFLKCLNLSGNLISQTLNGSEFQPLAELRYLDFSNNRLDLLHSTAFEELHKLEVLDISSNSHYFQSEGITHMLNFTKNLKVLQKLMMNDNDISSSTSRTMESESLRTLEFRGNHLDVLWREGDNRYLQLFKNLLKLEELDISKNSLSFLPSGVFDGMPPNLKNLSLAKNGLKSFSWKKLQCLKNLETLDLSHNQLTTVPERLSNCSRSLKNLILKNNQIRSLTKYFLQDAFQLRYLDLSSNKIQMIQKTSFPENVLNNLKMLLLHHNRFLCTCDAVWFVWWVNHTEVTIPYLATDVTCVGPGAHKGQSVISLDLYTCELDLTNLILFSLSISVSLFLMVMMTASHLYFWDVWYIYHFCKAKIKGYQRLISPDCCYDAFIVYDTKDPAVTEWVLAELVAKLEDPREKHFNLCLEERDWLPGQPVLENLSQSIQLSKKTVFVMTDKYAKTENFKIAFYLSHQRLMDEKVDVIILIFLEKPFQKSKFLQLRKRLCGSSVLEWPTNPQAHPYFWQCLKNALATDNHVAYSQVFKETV
The experiment in a line: Human TLR7 reporter gene inhibitory activity assay (NF-κB/SEAP HEK293). The test is classed as cell-based. On the set-up: host or cells: HEK293 (TLR7/NF-κB/SEAPorter). The conditions noted are these: for IC50 / human TLR7 activity, reporter signal: R848 200 nM. The procedure:
Compounds were dissolved in dimethyl sulfoxide. Before stimulation with compound, Human TLR7 reporter cell line (TLR7/NF-κB/SEAPorter^TM HEK293 cell, Novus Biological, USA), human TLR8 reporter cell line (TLR8/NF-κB/SEAPorter^TM HEK293 cell, Novus Biological), and human TLR9 reporter cell line (TLR9/NF-κB/SEAPorter^TM HEK293 cell, Novus Biological) were seeded in 96-well microtiter plate (AGC techno glass, Japan) at 5 × 10^4 cells/well in DMEM (GIBCO, United Kingdam) with 10 % fetal bovine serum (GIBCO), and 10 ug/ml Blastcidin S HCl (GIBCO) and incubated at 37 °C in 5% CO2. The plates were incubated over-night and then stimulated with various concentrations of compound. […] After 30 min, R848 (human TLR7/8 ligand, synthesized at Sumitomo Dainippon Pharma, Japan) or CpG2006 (human TLR9 ligand, Hokkaido System Science Co., Ltd., Japan) added to each well, wherein each final concentration were adjusted to 200 nM R848 (human TLR7), 30 μM R848 (human TLR8), or 500 nM CpG2006 (human TLR9). The plates were then incubated an additional 20 ± 1 h at 37 °C in 5% CO2 and then the secreted embryonic alkaline phosphatase (SEAP) activity was measured as activation of human TLR7, 8, and 9. The SEAP activity was evaluated as follows: pNPP (Invitrogen, USA) was added to the incubated sample (50 μl/well); after 15 min, 4 M sodium hydroxide solution (nacalai tesque, Japan) was added thereto (50 μl/well) to quench the reaction; and the absorbance of each sample was measured at 405 nm with microplate reader SpectraMax M4 (Molecular Devices, USA).
(In a reporter assay the amount or activity of a reporter protein is the signal.)

Setting [1] is: read-out: TLR7 inhibitory activity IC50.

Read-outs that look alike come from different tables or passages of the source.

As usually defined, the IC50 is the concentration at which inhibition is half-maximal. Consider `CCCCOc1nc(N)c2nc(-c3cccnc3)n(Cc3ccccc3)c2n1` [Cpd-5], for which the IC50 (read-out: TLR7 inhibitory potency IC50) was determined as 5000 nM. The “human TLR7 activity, reporter signal” value came out at 2.067 (compound 0.0001 nM (as headed)); 1.898 (compound 0.001 nM (as headed)); 1.879 (compound 0.003 nM (as headed)); 1.8207 (compound 0.01 nM (as headed)); 1.853 (compound 0.03 nM (as headed)); 1.8291 (compound 0.1 nM (as headed)). In addition, the “human TLR7 activity, reporter signal” value reads like this: (compound 0.3 nM (as headed)) 1.986; (compound 1 nM (as headed)) 1.7924; (compound 3 nM (as headed)) 1.5762; (compound 10 nM (as headed)) 1.162; (compound 30 nM (as headed)) 0.6856; (compound 100 nM (as headed)) 0.7605.

For `CCOc1nc(N)c2nc(-c3cncc(F)c3)n(Cc3ccc(CN4C[C@@H]5C[C@H]4CN5C)cc3)c2n1` [Cpd-6], the “selectivity for TLR7 over TLR8 and TLR9” value is “high TLR7 selectivity”. Further, the IC50 under setting [1] came to 25 nM. Besides, for the setting “compound 0.0001 nM (as headed)”, the “human TLR7 activity, reporter signal” value was 1.983. Also, the “human TLR7 activity, reporter signal” value (compound 0.001 nM (as headed)) is 1.907. Besides, the “human TLR7 activity, reporter signal” value (compound 0.003 nM (as headed)) stood at 1.643. For the same molecule, the “human TLR7 activity, reporter signal” value (compound 0.01 nM (as headed)) is 1.354. For the setting “compound 0.03 nM (as headed)”, the “human TLR7 activity, reporter signal” value came out at 0.8446. The “human TLR7 activity, reporter signal” value (compound 0.1 nM (as headed)) is reported as 0.3393. Moreover, the “human TLR7 activity, reporter signal” value (compound 0.3 nM (as headed)) worked out at 0.1771. Also, the “human TLR7 activity, reporter signal” value (compound 1 nM (as headed)) was found to be 0.006275. For the same molecule, under “compound 3 nM (as headed)”, the “human TLR7 activity, reporter signal” value is -0.01137. Further, the “human TLR7 activity, reporter signal” value (compound 10 nM (as headed)) is reported as -0.02343. For the same molecule, for the setting “compound 30 nM (as headed)”, the “human TLR7 activity, reporter signal” value was -0.03198. In addition, the “human TLR7 activity, reporter signal” value (compound 100 nM (as headed)) is -0.04843.

Consider `CCOc1nc(C)c2nc(-c3cncc(F)c3)n(Cc3ccc(CN4C[C@@H]5C[C@H]4CN5C)cc3)c2n1` [Cpd-7], for which the “selectivity for TLR7 over TLR8 and TLR9” value is listed as “high TLR7 selectivity”. Also, the IC50 under setting [1] amounted to 15 nM. Besides, the “human TLR7 activity, reporter signal” value (compound 0.0001 nM (as headed)) came out at 1.983. In addition, the “human TLR7 activity, reporter signal” value (compound 0.001 nM (as headed)) is reported as 1.718. Besides, the “human TLR7 activity, reporter signal” value (compound 0.003 nM (as headed)) came to 1.528. Moreover, the “human TLR7 activity, reporter signal” value (compound 0.01 nM (as headed)) came to 1.179. The “human TLR7 activity, reporter signal” value (compound 0.03 nM (as headed)) is 0.5917. In addition, the “human TLR7 activity, reporter signal” value (compound 0.1 nM (as headed)) is reported as 0.1271. Besides, the “human TLR7 activity, reporter signal” value (compound 0.3 nM (as headed)) worked out at 0.01692. In addition, where the note is “compound 1 nM (as headed)”, the “human TLR7 activity, reporter signal” value was -0.02107. Moreover, for the setting “compound 3 nM (as headed)”, the “human TLR7 activity, reporter signal” value is -0.03277. For the same molecule, where the note is “compound 10 nM (as headed)”, the “human TLR7 activity, reporter signal” value is given as -0.02908. Also, the “human TLR7 activity, reporter signal” value (compound 30 nM (as headed)) was -0.03703. For the same molecule, the “human TLR7 activity, reporter signal” value (compound 100 nM (as headed)) is -0.01692.

`CCN(CCO)CCCC(C)Nc1ccnc2cc(Cl)ccc12` (stereo not drawn) [HCQ, hydroxychloroquine, reference compound]: the “human TLR7 activity, reporter signal” value (compound 0.0001 nM (as headed)) is 1.977; the “human TLR7 activity, reporter signal” value (compound 0.01 nM (as headed)) worked out at 1.7427; the “human TLR7 activity, reporter signal” value (compound 0.03 nM (as headed)) came to 1.684; the “human TLR7 activity, reporter signal” value (compound 0.1 nM (as headed)) is given as 1.7194; the “human TLR7 activity, reporter signal” value (compound 0.3 nM (as headed)) turned out to be 1.681; the “human TLR7 activity, reporter signal” value (compound 1 nM (as headed)) is reported as 1.5856. Further, the “human TLR7 activity, reporter signal” value is, setting by setting: (compound 3 nM (as headed)) 1.338; (compound 10 nM (as headed)) 1.109; (compound 30 nM (as headed)) 0.2449; (compound 100 nM (as headed)) 0.0133.

Values taken from publication PMC7562955 (Nature Communications, 2020).
